The test system of the experiment is Saccharomyces cerevisiae wild type BY4741. In words: MIC determination in Saccharomyces cerevisiae wild type BY4741. Format: cell-based. Here is the method: In Vitro Antifungal Activity. MIC values for various strains were determined in accordance with the standard protocol from the National Committee of Clinical Laboratory Standards but using YEPD liquid medium instead of RPMI-1640 medium (National Committee of Clinical Laboratory Standards (Reference Method for Broth Dilution Antifungal Susceptibility Testing of Yeast, M27-A2, Approved Standard-Second Edition, Volume 22, Number 15, 1995). AmB was used as a reference. The strains were cultivated overnight in 5 mL YEPD liquid medium at 30 to 37° C. (30° C. for the strain BY4741; 37° C. for the strain DSY1764) with constant shaking. The saturated cultures were diluted to an ODB600 of 0.1 (3×10P^7 cells/mL). Using 24 wells plate, each well was prepared by adding 1% (12 μL) of DMSO solution of the tested polyene macrolide with 1% (12 μL) yeast cells solution and completed with YEPD (1.176 mL). The plates were sealed with Parafilm and then incubated for 18 to 36 hours at 30 to 37° C. (18 hours at 30° C. for the strain BY4741; 36 hours at 37° C. for the strain DSY1764). The optical density was read at 600 nm using 1.5 mL cuvettes. The MIC value was defined as the drug concentration needed to inhibit growth, less than 5% compared to a drug-free culture.
MIC values of various polyene macrolides of the invention in Saccharomyces cerevisiae wild type BY4741, a derivative of S288C, (with AmB as a reference) were determined as described hereinabove.
Based on the remarkable performance observed with the Diamine-AmB conjugate similar modifications of the aminosugar moiety were made on other polyene macrolides, such as for example Nystatin (1b) and Pimaricin (1c). The antifungal activity of these nystatin and pimaricin conjugates bearing two aminopropyl side chains was measured using Saccharomyces cerevisiae wild type BY4741.

Where [1] appears, read: Saccharomyces cerevisiae wild type BY4741.
[2] abbreviates: Saccharomyces cerevisiae wild type BY4741, YEPD liquid medium, 18 hours at 30° C., read-out: MIC.
Where [3] appears, read: Table 5, Saccharomyces cerevisiae wild type BY4741, read-out: MIC.

Converted amounts (≈) assume the structure as drawn. Where two headings read alike, the source gives them in different places.

One may read the MIC as the least concentration at which growth counts as inhibited.

For the setting “Saccharomyces cerevisiae, 18 h”, `C[C@@H]1[C@H](O)[C@@H](C)/C=C/C=C/C=C/C=C/C=C/C=C/C=C/[C@H](OC2O[C@H](C)[C@@H](O)[C@H](N(CCCO)CCCO)[C@@H]2O)CC2O[C@](O)(C[C@@H](O)C[C@@H](O)[C@H](O)CC[C@@H](O)C[C@@H](O)CC(=O)O[C@H]1C)C[C@H](O)[C@H]2C(=O)O` (stereo partly drawn) [compound 4, N,N-Di-(3-hydroxypropyl)-AmB] gave an MIC of 0.5 µM (≈ 0.52 µg/mL).

For `C[C@@H]1[C@H](O)[C@@H](C)/C=C/C=C/CC/C=C/C=C/C=C/C=C/[C@H](O[C@@H]2O[C@H](C)[C@@H](O)[C@H](N(CCCN)CCCN)[C@@H]2O)CC2O[C@](O)(C[C@@H](O)[C@H](O)CC[C@@H](O)C[C@@H](O)C[C@@H](O)CC(=O)O[C@H]1C)C[C@H](O)[C@H]2C(=O)O` [compound 17, N,N-Di-(3-aminopropyl)-Nystatin], inhibition of growth (Saccharomyces cerevisiae) (MIC) required 0.05 µM (≈ 0.052 µg/mL). Besides, under setting [1], the “antifungal activity compared with the native compounds 1b and 1c” value is on record as “significantly more active”. With `C[C@@H]1[C@H](O)[C@@H](C)/C=C/C=C/C=C/C=C/C=C/C=C/C=C/[C@H](O[C@@H]2O[C@H](C)[C@@H](O)[C@H](N3CCN(C(=O)CCCCCNC(=O)C(N)CCCCN)CC3)[C@@H]2O)CC2O[C@](O)(C[C@@H](O)C[C@@H](O)[C@H](O)CC[C@@H](O)C[C@@H](O)CC(=O)O[C@H]1C)C[C@H](O)[C@H]2C(=O)O` (stereo partly drawn) [compound 7, 2,6-Diamino-N-[6-oxo-6-(piperazin-1-yl)-hexyl]-hexanamide-AmB], the minimal inhibitory concentration (MIC) under setting [2] worked out at 0.1 µM (≈ 0.123 µg/mL). In turn, `C[C@@H]1[C@H](O)[C@@H](C)/C=C/C=C/C=C/C=C/C=C/C=C/C=C/[C@H](O[C@@H]2O[C@H](C)[C@@H](O)[C@H](N(CC(N)CCCCN)CC(N)CCCCN)[C@@H]2O)CC2O[C@](O)(C[C@@H](O)C[C@@H](O)[C@H](O)CC[C@@H](O)C[C@@H](O)CC(=O)O[C@H]1C)C[C@H](O)[C@H]2C(=O)O` (stereo partly drawn) [compound 5, N,N-Di-(2,6-diaminohexyl)-AmB] displayed a minimal inhibitory concentration (MIC) (Saccharomyces cerevisiae, 18 h) of 0.08 µM (≈ 0.0922 µg/mL). `C[C@@H]1[C@H](O)[C@@H](C)/C=C/C=C/C=C/C=C/C=C/C=C/C=C/[C@H](O[C@@H]2O[C@H](C)[C@@H](O)[C@H](N(CCNC(=N)N)CCNC(=N)N)[C@@H]2O)CC2O[C@](O)(C[C@@H](O)C[C@@H](O)[C@H](O)CC[C@@H](O)C[C@@H](O)CC(=O)O[C@H]1C)C[C@H](O)[C@H]2C(=O)O` [compound 6, N,N-Di-(2-ethylguanidine)-AmB]: inhibition of growth (Saccharomyces cerevisiae, 18 h) (MIC) required 0.1 µM (≈ 0.109 µg/mL). For `C[C@@H]1[C@H](O)[C@@H](C)/C=C/C=C/CC/C=C/C=C/C=C/C=C/C(O[C@H]2O[C@H](C)[C@@H](O)[C@H](N)[C@@H]2O)CC2O[C@](O)(CC(O)C(O)CCC(O)CC(O)CC(O)CC(=O)O[C@H]1C)CC(O)C2C(=O)O` (stereo partly drawn) [1b (Nystatin), Nystatin, reference compound], the minimal inhibitory concentration (MIC) under setting [3] turned out to be 3.0 µM (≈ 2.78 µg/mL). For `C[C@@H]1C/C=C/C=C/C=C/C=C/[C@H](O[C@@H]2O[C@H](C)[C@@H](O)[C@H](N(CCCN)CCCN)[C@@H]2O)C[C@@H]2O[C@](O)(C[C@@H](O)C[C@H]3O[C@@H]3/C=C/C(=O)O1)C[C@H](O)[C@H]2C(=O)O` [compound 18, N,N-Di-(3-aminopropyl)-Pimaricin], the “antifungal activity compared with the native compounds 1b and 1c” value under setting [1] was “significantly more active”. For the same molecule, the MIC under setting [3] was found to be 0.3 µM (≈ 0.234 µg/mL). As for `C[C@@H]1C/C=C/C=C/C=C/C=C/[C@H](O[C@@H]2O[C@H](C)[C@@H](O)[C@H](N)[C@@H]2O)C[C@@H]2O[C@](O)(C[C@@H](O)C[C@H]3O[C@@H]3/C=C/C(=O)O1)C[C@H](O)[C@H]2C(=O)O` [1c (Pimaricin), Pimaricin, reference compound], the MIC under setting [3] was 4 µM (≈ 2.66 µg/mL). For `C[C@@H]1[C@H](O)[C@@H](C)/C=C/C=C/C=C/C=C/C=C/C=C/C=C/[C@H](O[C@@H]2O[C@H](C)[C@@H](O)[C@H](N3CCN(C(=O)CCCCCNC(=O)C(N)CCCCNC(=N)N)CC3)[C@@H]2O)CC2O[C@](O)(C[C@@H](O)C[C@@H](O)[C@H](O)CC[C@@H](O)C[C@@H](O)CC(=O)O[C@H]1C)C[C@H](O)[C@H]2C(=O)O` (stereo partly drawn) [compound 8, 2-Amino-6-guanidine-N-[6-oxo-6-(piperazin-1-yl)-hexyl]-hexanamide-AmB], under setting [2], the minimal inhibitory concentration (MIC) was 0.1 µM (≈ 0.128 µg/mL).

`C[C@@H]1[C@H](O)[C@@H](C)/C=C/C=C/C=C/C=C/C=C/C=C/C=C/[C@H](OC2O[C@H](C)[C@@H](O)[C@H](N(CCN)CCN)[C@@H]2O)CC2O[C@](O)(C[C@@H](O)C[C@@H](O)[C@H](O)CC[C@@H](O)C[C@@H](O)CC(=O)O[C@H]1C)C[C@H](O)[C@H]2C(=O)O` (stereo partly drawn) [compound 2, N,N-Di-(2-aminoethyl)-AmB] showed an MIC (Saccharomyces cerevisiae, 18 h) of 0.25 µM (≈ 0.253 µg/mL).

Source of the values: US20090186838A1, “Amphotericin Derivatives” (Eidgenössische Technische Hochschule Zürich, priority 2006, published 2009).
